Measurements taken from paper PMC6117091, “The C. difficile clnRAB operon initiates adaptations to the host environment in response to LL-37” (PLoS Pathogens, 2018).

Test system: gene expression in C. difficile 630Δerm
Assay: RNA-seq, genes differentially expressed in LL-37
Details: 2 µg/ml LL-37, BHIS

CC[C@H](C)[C@H](NC(=O)[C@H](CCCCN)NC(=O)[C@H](CCC(=O)O)NC(=O)[C@H](CCCCN)NC(=O)[C@H](CO)NC(=O)[C@H](CCCCN)NC(=O)[C@H](CCCNC(=N)N)NC(=O)[C@H](Cc1ccccc1)NC(=O)[C@H](Cc1ccccc1)NC(=O)[C@H](CC(=O)O)NC(=O)CNC(=O)[C@H](CC(C)C)NC(=O)[C@@H](N)CC(C)C)C(=O)NCC(=O)N[C@@H](CCCCN)C(=O)N[C@@H](CCC(=O)O)C(=O)N[C@@H](Cc1ccccc1)C(=O)N[C@@H](CCCCN)C(=O)N[C@@H](CCCNC(=N)N)C(=O)N[C@H](C(=O)N[C@H](C(=O)N[C@@H](CCC(N)=O)C(=O)N[C@@H](CCCNC(=N)N)C(=O)N[C@H](C(=O)N[C@@H](CCCCN)C(=O)N[C@@H](CC(=O)O)C(=O)N[C@@H](Cc1ccccc1)C(=O)N[C@@H](CC(C)C)C(=O)N[C@@H](CCCNC(=N)N)C(=O)N[C@@H](CC(N)=O)C(=O)N[C@@H](CC(C)C)C(=O)N[C@H](C(=O)N1CCC[C@H]1C(=O)N[C@@H](CCCNC(=N)N)C(=O)N[C@H](C(=O)N[C@@H](CCC(=O)O)C(=O)N[C@@H](CO)C(=O)O)[C@@H](C)O)C(C)C)[C@@H](C)CC)C(C)C)[C@@H](C)CC [LL-37]
CD630_18890 fold change in LL-37: 4.54
CD630_18900 fold change in LL-37: 3.60
CD630_19120 (eutA) fold change in LL-37: 0.20
CD630_19150 (eutL) fold change in LL-37: 0.21
CD630_19180 (eutK) fold change in LL-37: 0.40
CD630_19210 fold change in LL-37: 0.48
CD630_19220 (eutN) fold change in LL-37: 0.25
CD630_19440 fold change in LL-37: 2.03
CD630_19670 fold change in LL-37: 2.01
CD630_20140 (ilvD) fold change in LL-37: 2.90
CD630_20160 fold change in LL-37: 0.26
CD630_20270 fold change in LL-37: 2.69
CD630_20280 (racX) fold change in LL-37: 2.39
CD630_20451 fold change in LL-37: 0.46
CD630_20751 fold change in LL-37: 2.21
CD630_20910 fold change in LL-37: 2.49
CD630_21270 fold change in LL-37: 2.34
CD630_21430 fold change in LL-37: 0.48
CD630_21510 fold change in LL-37: 0.48
CD630_21640 (ldh) fold change in LL-37: 2.95
CD630_21710 fold change in LL-37: 0.34
CD630_21930 (cwp24) fold change in LL-37: 2.54
CD630_22010 fold change in LL-37: 0.40
CD630_22330 (asrA) fold change in LL-37: 2.43
CD630_23090 fold change in LL-37: 2.29
CD630_23300 (xpt) fold change in LL-37: 0.49
CD630_23310 (mtlD) fold change in LL-37: 0.12
CD630_23320 (mtlF) fold change in LL-37: 0.12
CD630_23330 (mtlR) fold change in LL-37: 0.14
CD630_23340 (mtlA) fold change in LL-37: 0.15
CD630_23380 (4hbD) fold change in LL-37: 12.95
CD630_23390 (cat2) fold change in LL-37: 13.27
CD630_23400 fold change in LL-37: 13.14
CD630_23410 (abfD) fold change in LL-37: 14.81
CD630_23420 (sucD) fold change in LL-37: 12.71
CD630_23430 (cat1) fold change in LL-37: 11.85
CD630_23440 fold change in LL-37: 10.85
CD630_23700 (nadC) fold change in LL-37: 0.42
CD630_23710 (nadB) fold change in LL-37: 0.40
CD630_23720 (nadA) fold change in LL-37: 0.40
CD630_23790 (buk2) fold change in LL-37: 3.13
CD630_23800 (iorB) fold change in LL-37: 10.81
CD630_23810 (iorA) fold change in LL-37: 13.66
CD630_23820 fold change in LL-37: 13.76
CD630_24291 fold change in LL-37: 0.23
CD630_24610 (dnaK) fold change in LL-37: 0.48
CD630_24620 (grpE) fold change in LL-37: 0.41
CD630_24630 (hrcA) fold change in LL-37: 0.49
CD630_25090 fold change in LL-37: 0.40
CD630_25100 fold change in LL-37: 0.48
CD630_25110 fold change in LL-37: 0.48
CD630_25150 fold change in LL-37: 0.38
CD630_25160 (ansB) fold change in LL-37: 0.44
CD630_25171 fold change in LL-37: 2.04
CD630_25560 fold change in LL-37: 4.24
CD630_26140 fold change in LL-37: 0.12
CD630_26640 (murE) fold change in LL-37: 0.35
